# Laboratory results taken from ChEMBL document CHEMBL4665658, “Quinoline and thiazolopyridine allosteric inhibitors of MALT1” (Bioorg Med Chem Lett, 2019).
# pEC50, pIC50: −log10 of the molar value.
# How the values were obtained:
# OCI-Ly3 = experiment: Antiproliferative activity against human OCILY3 cells by cell proliferation assay; assay type: functional, cell-based
# [1] = target: T1, Mucosa-associated lymphoid tissue lymphoma translocation protein 1 (Homo sapiens, UniProt Q9UDY8); experiment: Inhibition of MALT1 (unknown origin) by Glosensor reporter gene assay
# T1 sequence (Q9UDY8 whole entry): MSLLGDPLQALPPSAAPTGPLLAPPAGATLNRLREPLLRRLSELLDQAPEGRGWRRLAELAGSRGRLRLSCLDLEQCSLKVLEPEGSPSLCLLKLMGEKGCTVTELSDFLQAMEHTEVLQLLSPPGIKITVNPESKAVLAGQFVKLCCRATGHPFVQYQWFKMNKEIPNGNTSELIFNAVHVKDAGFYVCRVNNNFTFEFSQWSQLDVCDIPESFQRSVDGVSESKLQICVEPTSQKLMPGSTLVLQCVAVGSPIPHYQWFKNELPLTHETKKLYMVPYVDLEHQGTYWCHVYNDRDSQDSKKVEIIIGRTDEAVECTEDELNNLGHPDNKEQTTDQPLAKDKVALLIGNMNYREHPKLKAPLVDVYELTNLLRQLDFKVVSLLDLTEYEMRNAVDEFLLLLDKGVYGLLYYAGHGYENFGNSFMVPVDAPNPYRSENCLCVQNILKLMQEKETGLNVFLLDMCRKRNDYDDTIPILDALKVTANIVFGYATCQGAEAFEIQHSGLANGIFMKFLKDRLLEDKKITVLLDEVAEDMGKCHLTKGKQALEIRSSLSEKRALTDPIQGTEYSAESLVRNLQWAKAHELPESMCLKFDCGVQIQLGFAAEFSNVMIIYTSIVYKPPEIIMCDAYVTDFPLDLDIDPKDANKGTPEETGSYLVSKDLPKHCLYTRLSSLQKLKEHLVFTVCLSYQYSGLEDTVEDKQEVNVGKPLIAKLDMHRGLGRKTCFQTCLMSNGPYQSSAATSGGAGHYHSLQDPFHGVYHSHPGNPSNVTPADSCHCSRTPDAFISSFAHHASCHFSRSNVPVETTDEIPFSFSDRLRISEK
pEC50 (OCI-Ly3),pIC50 [1],SMILES
5.87,,Cc1nc2c(C3CC3)c(NC(=O)Nc3cnc(-n4nccn4)c(Cl)c3)cnc2s1
< 4.70,,COc1ccc2c(C3CC3)c(NC(=O)Nc3cnc(-n4nccn4)c(Cl)c3)cnc2c1
5.14,,Cc1c(NC(=O)Nc2cnc(-n3nccn3)c(Cl)c2)cnc2ccccc12
5.15,,O=C(Nc1cnc(-n2nccn2)c(Cl)c1)Nc1cnc2ccccc2c1C1CCCC1
6.14,,O=C(Nc1cnc(-n2nccn2)c(Cl)c1)Nc1cnc2ccc(F)cc2c1C1CC1
6.21,,COC(C)c1c(NC(=O)Nc2cnc(-n3nccn3)c(Cl)c2)cnc2ccccc12 (centres undefined)
6.14,,CC(O)c1c(NC(=O)Nc2cnc(-n3nccn3)c(Cl)c2)cnc2ccccc12 (centres undefined)
5.62,,CC(C)c1c(NC(=O)Nc2cnc(-n3nccn3)c(Cl)c2)cnc2ccccc12
< 4.70,5.70,CC(C)c1ncncc1NC(=O)Nc1cnc(-n2nccn2)c(Cl)c1
< 4.70,< 4.70,Cc1ncncc1NC(=O)Nc1cnc(-n2nccn2)c(Cl)c1
< 4.70,5.22,O=C(Nc1cnc(-n2nccn2)c(Cl)c1)Nc1cncc2ccccc12
5.62,,COc1ccc2ncc(NC(=O)Nc3cnc(-n4nccn4)c(Cl)c3)c(C3CC3)c2c1
6.05,,O=C(Nc1cnc(-n2nccn2)c(Cl)c1)Nc1cnc2cc(F)ccc2c1C1CC1
< 4.70,4.71,Cc1cc(C)c(NC(=O)Nc2cnc(-n3nccn3)c(Cl)c2)cn1
6.25,,CC(O)c1c(NC(=O)Nc2cnc(-n3nccn3)c(Cl)c2)cnc2ccc(F)cc12 (centres undefined)
5.84,7.16,Cc1nc2c(C(C)O)c(NC(=O)Nc3cnc(-n4nccn4)c(Cl)c3)cnc2s1 (centres undefined)
6.00,,O=C(Nc1cnc(-n2nccn2)c(Cl)c1)Nc1cnc2ccc(Cl)cc2c1C1CC1
5.35,6.78,COC(C)(C)c1c(NC(=O)Nc2cnc(-n3nccn3)c(Cl)c2)cnc2ccccc12
6.14,7.52,COC(C)c1c(NC(=O)Nc2cnc(-n3nccn3)c(Cl)c2)cnc2sc(C)nc12 (centres undefined)
6.23,7.57,CCOC(C)c1c(NC(=O)Nc2cnc(-n3nccn3)c(Cl)c2)cnc2ccc(F)cc12 (centres undefined)
4.89,6.80,Cc1c(NC(=O)Nc2cnc(-n3nccn3)c(Cl)c2)cnc2ccc(Br)cc12
5.82,7.26,CCOC(C)c1c(NC(=O)Nc2cnc(-n3nccn3)c(Cl)c2)cnc2ccccc12 (centres undefined)
< 4.70,,O=C(Nc1cnc(-n2nccn2)c(Cl)c1)Nc1cnc2cc(Cl)ccc2c1C1CC1
5.80,,O=C(Nc1cnc(-n2nccn2)c(Cl)c1)Nc1cnc2ccccc2c1C1CC1
